In BindingDB's records for PubMed 35688004 (University of Hradec Kralove, 2022):

Tests used:
[1] = molecular target: Phosphatidylinositol 4,5-bisphosphate 3-kinase catalytic subunit beta isoform (Homo sapiens, UniProt P42338); assay: Inhibition of human PI3Kbeta preincubated for 15 mins followed by ATP addition measured after 1 hr by TR-FRET assay
[2] = molecular target: Phosphatidylinositol 4,5-bisphosphate 3-kinase catalytic subunit gamma isoform (Homo sapiens, UniProt P48736); assay: Inhibition of human PI3Kgamma preincubated for 15 mins followed by ATP addition measured after 1 hr by TR-FRET assay
[3] = molecular target: Phosphatidylinositol 4,5-bisphosphate 3-kinase catalytic subunit alpha isoform (Homo sapiens, UniProt P42336); assay: Inhibition of human PI3Kalpha preincubated for 15 mins followed by ATP addition measured after 1 hr by TR-FRET assay
Chain of Phosphatidylinositol 4,5-bisphosphate 3-kinase catalytic subunit alpha isoform (P42336 whole entry, canonical isoform): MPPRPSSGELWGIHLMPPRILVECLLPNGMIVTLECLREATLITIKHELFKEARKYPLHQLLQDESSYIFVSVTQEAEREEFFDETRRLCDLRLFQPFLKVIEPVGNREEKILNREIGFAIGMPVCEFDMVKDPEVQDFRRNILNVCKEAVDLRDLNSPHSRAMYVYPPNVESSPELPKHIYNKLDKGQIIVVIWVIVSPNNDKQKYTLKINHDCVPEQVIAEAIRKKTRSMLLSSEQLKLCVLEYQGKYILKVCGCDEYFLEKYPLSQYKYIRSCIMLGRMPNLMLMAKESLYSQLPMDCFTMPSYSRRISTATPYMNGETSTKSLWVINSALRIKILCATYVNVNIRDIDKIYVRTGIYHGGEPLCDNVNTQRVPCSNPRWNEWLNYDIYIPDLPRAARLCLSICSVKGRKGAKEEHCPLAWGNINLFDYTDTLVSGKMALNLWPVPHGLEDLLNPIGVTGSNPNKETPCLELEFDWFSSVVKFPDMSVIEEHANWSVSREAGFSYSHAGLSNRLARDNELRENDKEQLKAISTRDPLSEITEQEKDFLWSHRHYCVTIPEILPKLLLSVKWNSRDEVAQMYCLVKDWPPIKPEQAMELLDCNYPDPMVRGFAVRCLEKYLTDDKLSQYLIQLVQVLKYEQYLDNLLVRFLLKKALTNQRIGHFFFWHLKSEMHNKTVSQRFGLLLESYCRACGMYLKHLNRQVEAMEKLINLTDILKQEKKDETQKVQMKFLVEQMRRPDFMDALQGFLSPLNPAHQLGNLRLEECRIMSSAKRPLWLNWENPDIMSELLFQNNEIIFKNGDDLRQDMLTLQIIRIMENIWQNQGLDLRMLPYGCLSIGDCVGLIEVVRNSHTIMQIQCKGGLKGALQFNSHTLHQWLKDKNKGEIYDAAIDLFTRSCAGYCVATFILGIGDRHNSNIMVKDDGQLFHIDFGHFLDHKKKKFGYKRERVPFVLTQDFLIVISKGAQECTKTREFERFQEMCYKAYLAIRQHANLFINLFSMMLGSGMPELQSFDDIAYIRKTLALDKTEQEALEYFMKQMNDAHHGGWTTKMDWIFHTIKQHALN

Chain of Phosphatidylinositol 4,5-bisphosphate 3-kinase catalytic subunit beta isoform (P42338 whole entry, canonical isoform): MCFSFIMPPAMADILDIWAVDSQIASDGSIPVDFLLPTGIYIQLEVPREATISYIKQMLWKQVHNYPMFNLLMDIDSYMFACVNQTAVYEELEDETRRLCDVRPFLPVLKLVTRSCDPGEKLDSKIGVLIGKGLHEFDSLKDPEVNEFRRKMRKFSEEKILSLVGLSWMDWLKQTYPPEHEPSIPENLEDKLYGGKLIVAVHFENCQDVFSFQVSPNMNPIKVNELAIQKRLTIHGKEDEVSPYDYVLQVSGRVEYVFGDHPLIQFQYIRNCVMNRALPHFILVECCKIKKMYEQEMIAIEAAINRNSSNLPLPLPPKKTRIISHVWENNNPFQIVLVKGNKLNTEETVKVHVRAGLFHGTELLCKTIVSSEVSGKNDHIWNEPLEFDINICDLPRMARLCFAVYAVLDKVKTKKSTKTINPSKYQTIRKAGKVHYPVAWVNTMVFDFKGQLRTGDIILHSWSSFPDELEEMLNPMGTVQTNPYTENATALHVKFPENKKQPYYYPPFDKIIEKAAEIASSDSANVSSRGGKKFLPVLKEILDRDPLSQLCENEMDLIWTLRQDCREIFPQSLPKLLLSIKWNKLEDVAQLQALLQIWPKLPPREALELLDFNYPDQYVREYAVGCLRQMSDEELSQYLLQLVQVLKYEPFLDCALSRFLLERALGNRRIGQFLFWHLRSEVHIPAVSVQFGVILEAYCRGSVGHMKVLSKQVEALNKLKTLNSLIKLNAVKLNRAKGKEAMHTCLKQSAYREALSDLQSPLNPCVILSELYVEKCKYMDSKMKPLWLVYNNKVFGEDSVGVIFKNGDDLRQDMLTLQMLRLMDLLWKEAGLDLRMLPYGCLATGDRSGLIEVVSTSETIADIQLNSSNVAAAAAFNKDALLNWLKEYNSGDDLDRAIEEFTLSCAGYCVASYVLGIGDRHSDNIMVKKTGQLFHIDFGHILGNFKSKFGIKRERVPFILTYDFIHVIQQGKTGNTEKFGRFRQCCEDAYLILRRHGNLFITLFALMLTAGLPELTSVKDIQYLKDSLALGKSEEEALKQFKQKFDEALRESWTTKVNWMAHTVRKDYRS
Chain of Phosphatidylinositol 4,5-bisphosphate 3-kinase catalytic subunit gamma isoform (P48736 whole entry, canonical isoform): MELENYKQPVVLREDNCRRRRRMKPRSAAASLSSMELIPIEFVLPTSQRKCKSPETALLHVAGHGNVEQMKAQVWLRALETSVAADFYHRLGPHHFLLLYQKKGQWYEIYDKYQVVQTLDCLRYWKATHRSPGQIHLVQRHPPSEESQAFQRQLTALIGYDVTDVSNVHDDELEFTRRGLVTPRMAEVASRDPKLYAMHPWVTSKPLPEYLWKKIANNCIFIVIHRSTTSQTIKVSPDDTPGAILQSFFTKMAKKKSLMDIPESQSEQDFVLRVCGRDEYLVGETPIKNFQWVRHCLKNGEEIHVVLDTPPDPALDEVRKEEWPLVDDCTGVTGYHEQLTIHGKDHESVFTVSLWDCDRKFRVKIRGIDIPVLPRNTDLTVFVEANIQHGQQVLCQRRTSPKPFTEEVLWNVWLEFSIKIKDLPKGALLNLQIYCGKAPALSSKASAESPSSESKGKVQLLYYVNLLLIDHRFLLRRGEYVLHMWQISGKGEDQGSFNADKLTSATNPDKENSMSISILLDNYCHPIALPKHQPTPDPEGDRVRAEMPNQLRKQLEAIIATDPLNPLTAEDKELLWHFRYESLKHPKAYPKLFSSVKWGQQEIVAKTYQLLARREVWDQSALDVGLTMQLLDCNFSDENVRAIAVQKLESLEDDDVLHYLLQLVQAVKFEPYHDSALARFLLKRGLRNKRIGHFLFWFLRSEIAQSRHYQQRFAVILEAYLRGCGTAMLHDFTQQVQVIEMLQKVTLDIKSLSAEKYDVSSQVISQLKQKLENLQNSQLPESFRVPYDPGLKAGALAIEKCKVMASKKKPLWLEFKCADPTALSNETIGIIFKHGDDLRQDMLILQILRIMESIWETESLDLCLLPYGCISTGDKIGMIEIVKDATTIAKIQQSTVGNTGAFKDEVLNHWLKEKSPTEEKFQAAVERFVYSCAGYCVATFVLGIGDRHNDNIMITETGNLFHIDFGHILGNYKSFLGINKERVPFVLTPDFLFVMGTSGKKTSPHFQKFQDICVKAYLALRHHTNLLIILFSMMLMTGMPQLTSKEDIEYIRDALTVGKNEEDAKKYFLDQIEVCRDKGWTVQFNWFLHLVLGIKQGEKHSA

| IC50 [1] | IC50 [2] | IC50 [3] | SMILES |
| --- | --- | --- | --- |
| > 500 nM | – | – | Nc1ncnc2c1c(-c1cc3cc(O)cc(Cl)c3[nH]1)nn2C1CCOCC1 [US10172858, Table 2.68] |
| > 500 nM | > 500 nM | > 500 nM | Nc1ncnc2c1c(-c1cc3cccc(O)c3[nH]1)nn2C1CCOCC1 [US10172858, Table 2.62] |
| > 500 nM | – | – | COc1cccc2cc(-c3nn(C4CCOCC4)c4ncnc(N)c34)[nH]c12 [US10172858, Table 2.63] |
| > 500 nM | – | – | CC(=O)N1CCC(n2nc(-c3cc4cc(O)cc(Cl)c4[nH]3)c3c(N)ncnc32)CC1 [US10172858, Table 2.70] |
| > 500 nM | > 500 nM | > 500 nM | CC(=O)N1CCC(n2nc(-c3cc4c(Cl)ccc(O)c4[nH]3)c3c(N)ncnc32)CC1 [US10172858, Table 2.69] |

| SMILES | IC50 [1] | IC50 [2] | IC50 [3] |
| --- | --- | --- | --- |
| Nc1ncnc2c1c(-c1cc3cc(O)ccc3[nH]1)nn2C1CCOCC1 [US10172858, Table 2.42] | > 500 nM | – | > 500 nM |
